Experimental data as given in article PMC10732325 (ACS catalysis, 2023).

Key:
VldE [1] = target: VldE (Streptomyces hygroscopicus, UniProt Q15JG1, D158N); experiment: X-ray crystal structure; assay type: binding; settings: apo crystals soaked with 10 mM GDP-glucose, only GDP found; pH 8.5
VldE [2] = target: VldE (Streptomyces hygroscopicus, UniProt Q15JG1, H182A); experiment: X-ray crystal structure; assay type: binding; settings: apo crystals soaked with 10 mM GDP-glucose, only GDP found; pH 8.0
Sequence of VldE (Streptomyces hygroscopicus, UniProt Q15JG1, H182A) (Q15JG1 whole entry H182A): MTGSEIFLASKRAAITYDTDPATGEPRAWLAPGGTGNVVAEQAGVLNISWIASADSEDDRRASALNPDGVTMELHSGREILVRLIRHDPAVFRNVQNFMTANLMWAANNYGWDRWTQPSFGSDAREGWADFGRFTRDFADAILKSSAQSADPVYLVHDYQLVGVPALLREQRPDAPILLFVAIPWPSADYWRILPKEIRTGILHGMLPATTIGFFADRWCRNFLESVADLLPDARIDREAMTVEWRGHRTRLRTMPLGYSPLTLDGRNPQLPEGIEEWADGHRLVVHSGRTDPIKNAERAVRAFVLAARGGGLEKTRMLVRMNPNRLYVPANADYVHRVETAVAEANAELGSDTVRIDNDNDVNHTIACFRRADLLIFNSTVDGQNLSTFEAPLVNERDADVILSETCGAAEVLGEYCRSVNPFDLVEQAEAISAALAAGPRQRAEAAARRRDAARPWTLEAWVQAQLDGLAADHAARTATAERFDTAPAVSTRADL

Sequence of VldE (Streptomyces hygroscopicus, UniProt Q15JG1, D158N) (Q15JG1 whole entry D158N): as the sequence (Q15JG1 whole entry H182A) above, with D158N, A182H counted along it

In the case of `Nc1nc2c(ncn2[C@@H]2O[C@H](COP(=O)(O)OP(=O)(O)O)[C@@H](O)[C@H]2O)c(=O)[nH]1` [GDP], the X-ray crystal structure (VldE [1]) is reported as “only the crystal structures of the two variants in complex with GDP were obtained” and the X-ray crystal structure (VldE [2]) is reported as “only the crystal structures of the two variants in complex with GDP were obtained”.
